Experimental data published in patent US20040200144A1, “Plant growth regulator and a method of producing the regulator” (Dainichiseika Color & Chemicals Mfg. Co., Ltd., priority 2003, published 2004).

Assays:
Format in all cases: in vivo
[1] = tested on: qing-geng-cai young plants; assay: Dwarfing test of qing-geng-cai young plant; details: for Plant Height / Dwarfing Rate: 5 ml per cell on 5th day, measured 20th day; for Dwarfing Rate: vs comparative group
Method: (§1) 50 g of sodium tripolyphosphate was dissolved in 400 ml of distilled water at 80° C., 17.5 g of cinnamic acid was added to the sodium tripolyphosphate solution and dissolved by stirring, the resultant solution was diluted with distilled water until the total volume of solution was 500 ml, and thus 3.5% cinnamic acid aqueous solution (pH 6.5) was prepared. The aqueous solution was further diluted with distilled water 70 times or 17.5 times, and 0.05% cinnamic acid aqueous solution and 0.2% cinnamic acid aqueous solution were prepared, respectively.
(§2) Nursery soil for house use was filled into paper joint pots (each with 24 cells: 34×43×50 mm/cell), water was sufficiently given to the soil, and seeds of carrots were sowed. After seeding, the pot was placed in the same greenhouse as described above to sprout. Subsequently, on the 5th day, the cinnamic aqueous acid solutions were added to the nursery soil in the joint pots. One of the joint pots (24 cells) was prepared as a 0.05% cinnamic acid aqueous solution addition group, and 5 ml of the 0.05% cinnamic acid aqueous solution was added to the nursery soil of each cell. Another one of the join pots was prepared as a 0.2% cinnamic acid aqueous solution addition group, and 5 ml of the 0.2% cinnamic acid aqueous solution was added to the nursery soil of each cell. The other one of the joint pots was prepared as a comparative group in which 5 ml of water is added to each cell, instead of the cinnamic acid aqueous solution. Subsequently, the cultivation of carrot young plants in each group was continued under general conditions. On the 27th day, the heights of young plants in each group were measured, the dwarfing rate (%) was calculated, and the dwarfing effect of cinnamic acid aqueous solution on carrot young plants was examined. […].
In the same way as in Example 5 except that seeds of […] were sowed, and that plant heights were measured on the 20th day, the dwarfing effect of cinnamic acid aqueous solution on qing-geng-cai young plants was examined. […]

onion young plants = assay: Dwarfing test of onion young plant; details: for Plant Height / Dwarfing Rate: 5 ml per cell on 5th day, measured 27th day; for Dwarfing Rate: vs comparative group
Method: as §1, §2
In the same way as in Example 5 except that seeds of onion were sowed, the dwarfing effect of cinnamic acid aqueous solution on onion young plants was examined. […]

Poinsettia young plants = assay: Dwarfing test of poinsettia young plant; details: for Plant Height / Dwarfing Rate: 100 ml per pot to nursery soil on 49th and 78th days, measured 93rd day; for Dwarfing Rate: vs comparative group
Method: 18.4 g of potassium hydroxide was dissolved in 400 ml of distilled water at 20° C., 50 g of cinnamic acid was added to the potassium hydroxide solution and dissolved by stirring, the resultant solution was diluted with distilled water until the total volume of solution was 500 ml, and thus a cinnamic acid aqueous solution (pH 8.8) was prepared in a concentration of 10%. The aqueous solution was further diluted with distilled water 33.3 times or 20 times, and thus a cinnamic acid aqueous solution in a concentration of 0.3% or 0.5% was prepared, respectively.
Poinsettia young plants with heights of about 10 cm were planted and fixed in pots (diameter of 14.5 cm and depth of 14.5 cm), and cultivated continuously. On the 49th and 78th days, 100 ml of 0.3% or 0.5% cinnamic acid aqueous solution prepared as described above was added to the nursery soil of each of 30 pots, and thus 0.3% cinnamic acid aqueous solution addition group and 0.5% cinnamic acid aqueous solution addition group were obtained. Further, 30 pots were prepared as a comparative group on which general watering was performed. The cultivation of young plants of each group was continued. On the 93rd day, the length from a surface of the soil of each cultivation pot to a head portion of the poinsettia young plant was measured, the dwarfing rate (%) was calculated using the following equation, and thus the dwarfing effect of cinnamic acid aqueous solution was examined (the same way was applied to following examples).
Dwarfing rate (%)=[(the plant height of the comparative group)−(the plant height of an addition group)/the plant height of the comparative group]×100
In addition, “plant height” in all the tables below was an average of heights from a surface of the soil of a pot used in each test to a head portion of the plant.

green onion young plants = assay: Dwarfing test of green onion young plant; details: for Plant Height / Dwarfing Rate: 5 ml per cell on 5th day, measured 27th day; for Dwarfing Rate: vs comparative group
Method: as §1, §2
In the same way as in Example 5 except that seeds of green onion were sowed, the dwarfing effect of cinnamic acid aqueous solution on green onion young plants was examined. […]

Q: Which results are given for `O=C(O)C=Cc1ccccc1` [cinnamic acid]?
A: Plant Height ([1]; 0.05% aqueous solution): 6.3 cm; Dwarfing Rate ([1]; 0.05% aqueous solution): 7.4%; Plant Height ([1]; 0.2% aqueous solution): 4.3 cm; Dwarfing Rate ([1]; 0.2% aqueous solution): 36.8%; dwarfing effect ([1]; qing-geng-cai young plants, 0.05% and 0.2% aqueous solutions): effective; Plant Height (onion young plants; 0.05% aqueous solution): 8.0 cm; Dwarfing Rate (onion young plants; 0.05% aqueous solution): 15.8%; Plant Height (onion young plants; 0.2% aqueous solution): 7.5 cm; Dwarfing Rate (onion young plants; 0.2% aqueous solution): 21.1%; dwarfing effect (onion young plants; onion young plants, 0.05% and 0.2% aqueous solutions): effective; Plant Height (Poinsettia young plants; 0.3% aqueous solution): 19.2 cm; Dwarfing Rate (Poinsettia young plants; 0.3% aqueous solution): 17.6%; Plant Height (Poinsettia young plants; 0.5% aqueous solution): 18.1 cm; Dwarfing Rate (Poinsettia young plants; 0.5% aqueous solution): 22.3%; dwarfing effect (Poinsettia young plants; poinsettia young plants, 0.3% and 0.5% aqueous solutions): effective; Plant Height (green onion young plants; 0.05% aqueous solution): 7.2 cm; Dwarfing Rate (green onion young plants; 0.05% aqueous solution): 25.8%; Plant Height (green onion young plants; 0.2% aqueous solution): 5.6 cm; Dwarfing Rate (green onion young plants; 0.2% aqueous solution): 42.3%; dwarfing effect (green onion young plants; green onion young plants, 0.05% and 0.2% aqueous solutions): effective
